Legend:
Assay type in all cases: in vivo
[1] = system: Echinochloa crus galli (ECHCG); assay: greenhouse experiment, pre-emergence treatment; conditions: application rate 3 kg/ha, scale 0 to 100
Excerpt: (§1) The culture containers used were plastic flowerpots containing loamy sand with approximately 3.0% of humus as the substrate. The seeds of the test plants were sown separately for each species.
(§2) For the pre-emergence treatment, the active ingredients, which had been suspended or emulsified in water, were applied directly after sowing by means of finely distributing nozzles. The containers were irrigated gently to promote germination and growth and subsequently covered with transparent plastic hoods until the plants had rooted. This cover caused uniform germination of the test plants, unless this has been impaired by the active ingredients.
(§3) Depending on the species, the plants were kept at 10-25° C. or 20-35° C. The test period extended over 2 to 4 weeks. During this time, the plants were tended, and their response to the individual treatments was evaluated.
(§4) Evaluation was carried out using a scale from 0 to 100. 100 means no emergence of the plants, or complete destruction of at least the aerial moieties, and 0 means no damage, or normal course of growth. A good herbicidal activity is given at values of at least 70 and a very good herbicidal activity is given at values of at least 85.

[2] = system: Setaria faberi (SETFA); assay: greenhouse experiment, post-emergence treatment; conditions: application rate 3 kg/ha, scale 0 to 100
Excerpt: as §1
(§5) For the post-emergence treatment, the test plants were first grown to a height of 3 to 15 cm, depending on the plant habit, and only then treated with the active ingredients which had been suspended or emulsified in water. For this purpose, the test plants were either sown directly and grown in the same containers, or they were first grown separately as seedlings and transplanted into the test containers a few days prior to treatment.
as §3, §4

[3] = system: Apera spica-venti (APESV); assay: greenhouse experiment, pre-emergence treatment; conditions: application rate 0.5 kg/ha, scale 0 to 100
Excerpt: as §1, §2, §3, §4

[4] = system: Amaranthus retroflexus (AMARE); assay: greenhouse experiment, pre-emergence treatment; conditions: application rate 0.5 kg/ha, scale 0 to 100
Excerpt: as §1, §2, §3, §4

[5] = system: Alopecurus myosuroides (ALOMY); assay: greenhouse experiment, post-emergence treatment; conditions: application rate 3 kg/ha, scale 0 to 100
Excerpt: as §1, §5, §3, §4

[6] = system: Avena fatua (AVEFA); assay: greenhouse experiment, post-emergence treatment; conditions: application rate 3 kg/ha, scale 0 to 100
Excerpt: as §1, §5, §3, §4

[7] = system: SETIT; assay: greenhouse experiment, pre-emergence treatment; conditions: application rate 3 kg/ha, scale 0 to 100
Excerpt: as §1, §2, §3, §4

[8] = system: Setaria faberi (SETFA); assay: greenhouse experiment, pre-emergence treatment; conditions: application rate 3 kg/ha, scale 0 to 100
Excerpt: as §1, §2, §3, §4

CCS(=O)(=O)OC(c1ccccc1[N+](=O)[O-])C1C(=O)N(C)C(Cc2ccccc2)C(=O)N1C (centres unmarked) [A.2.275]
herbicidal pre-emergence activity against ECHCG [1]: good to very good
herbicidal post-emergence activity against SETFA [2]: good to very good

CN1C(=O)C(C(OCc2ccccc2)c2ccccc2[N+](=O)[O-])N(C)C(=O)C1Cc1ccccc1 (centres unmarked) [A.2.255]
herbicidal post-emergence activity against SETFA [2]: good to very good

COS(=O)(=O)C(c1ccccc1[N+](=O)[O-])C1C(=O)N(C)C(Cc2cccs2)C(=O)N1C (centres unmarked) [A.5.17, methyl [1,4-dimethyl-3,6-dioxo-5-(thiophen-2-ylmethyl)piperazin-2-yl]-(2-nitrophenyl) methanesulfonate]
herbicidal pre-emergence activity against APESV [3]: good (A good herbicidal activity is given at values of at least 70)
herbicidal pre-emergence activity against AMARE [4]: very good (a very good herbicidal activity is given at values of at least 85)

CN1C(=O)C(Cc2ccccc2NS(C)(=O)=O)N(C)C(=O)C1Cc1ccccc1 (centres unmarked) [A.2.105]
herbicidal pre-emergence activity against ECHCG [1]: good to very good
herbicidal post-emergence activity against ALOMY [5]: very good (a very good herbicidal activity is given at values of at least 85)
herbicidal post-emergence activity against AVEFA [6]: very good (a very good herbicidal activity is given at values of at least 85)

CC(Oc1ccc(CC2C(=O)N(C)C(Cc3ccccc3)C(=O)N2C)c([N+](=O)[O-])c1)C(=O)O (centres unmarked) [A.1.13]
herbicidal pre-emergence activity against SETIT [7]: good to very good

COS(=O)(=O)C(c1cccnc1Br)C1C(=O)N(C)C(Cc2ccccc2)C(=O)N1C (centres unmarked) [A.5.16, methyl (5-benzyl-1,4-dimethyl-3,6-dioxopiperazin-2-yl)-(2-bromopyridin-3-yl)methanesulfonate]
herbicidal pre-emergence activity against SETIT [7]: good to very good

CC(=O)OC(c1ccccc1[N+](=O)[O-])C1C(=O)N(C)C(Cc2ccccc2)C(=O)N1C (centres unmarked) [A.2.251]
herbicidal post-emergence activity against SETFA [2]: good to very good

Cc1cc(-c2ccccc2CC2C(=O)N(C)C(Cc3ccccc3)C(=O)N2C)on1 (centres unmarked) [A.2.273]
herbicidal pre-emergence activity against ECHCG [1]: good to very good
herbicidal pre-emergence activity against SETIT [7]: good to very good
herbicidal post-emergence activity against SETFA [2]: good to very good

CN1C(=O)C(C(OS(C)(=O)=O)c2ccccc2[N+](=O)[O-])N(C)C(=O)C1Cc1ccccc1 (single isomer, unassigned) [A.2.267]
herbicidal pre-emergence activity against ECHCG [1]: good to very good
herbicidal pre-emergence activity against SETIT [7]: good to very good
herbicidal post-emergence activity against SETFA [2]: good to very good

CN1C(=O)C(C(O[Si](C)(C)C)c2ccccc2[N+](=O)[O-])N(C)C(=O)C1Cc1ccccc1 (single isomer, unassigned) [A.2.271]
herbicidal pre-emergence activity against SETIT [7]: good to very good

CN1C(=O)C(C(OS(C)(=O)=O)c2ccccc2[N+](=O)[O-])N(C)C(=O)C1Cc1ccccc1 (single isomer, unassigned) [A.2.265]
herbicidal pre-emergence activity against ECHCG [1]: good to very good
herbicidal pre-emergence activity against SETIT [7]: good to very good
herbicidal post-emergence activity against SETFA [2]: good to very good

CN1C(=O)C(Cc2ccccc2C#N)N(C)C(=O)C1Cc1ccccc1 (centres unmarked) [A.2.81]
herbicidal pre-emergence activity against SETFA [8]: very good (a very good herbicidal activity is given at values of at least 85)

CC(C)=CCN1C(=O)C(Cc2ccccc2[N+](=O)[O-])N(C)C(=O)C1Cc1ccccc1 (single isomer, unassigned) [A.2.64]
herbicidal pre-emergence activity against ECHCG [1]: good to very good
herbicidal post-emergence activity against SETFA [2]: good to very good

C=Cc1ccccc1CC1C(=O)N(C)C(Cc2ccccc2)C(=O)N1C (centres unmarked) [A.2.274]
herbicidal pre-emergence activity against ECHCG [1]: good to very good
herbicidal post-emergence activity against SETFA [2]: good to very good

C#Cc1ccccc1CC1C(=O)N(C)C(Cc2ccccc2)C(=O)N1C (centres unmarked) [A.2.135]
herbicidal pre-emergence activity against ECHCG [1]: good to very good
herbicidal pre-emergence activity against SETIT [7]: good to very good
herbicidal post-emergence activity against SETFA [2]: good to very good

CN1C(=O)C(Cc2c(Br)cccc2[N+](=O)[O-])N(C)C(=O)C1Cc1ccccc1 (centres unmarked) [A.2.133]
herbicidal pre-emergence activity against ECHCG [1]: good to very good
herbicidal post-emergence activity against SETFA [2]: good to very good

CC(C)OC(=O)CN1C(=O)C(Cc2ccccc2[N+](=O)[O-])N(C)C(=O)C1Cc1ccccc1 (single isomer, unassigned) [A.2.65]
herbicidal post-emergence activity against SETFA [2]: good to very good
